PubChem BioAssay AID212 (DTP/NCI, 2004)
“And” between values parts separate entries of the source, which are not always exact repeats. Equal values may be shown once. Inconclusive results are not listed. Where a SMILES comes first, the peptide text is derived from it. The star is where a group is joined. Trt = c1ccc(C(c2ccccc2)(c2ccccc2)*)cc1; Cbz = O=C(OCc1ccccc1)*

System: BDF1 mice, colon carcinoma 38 sc, T/C %
Experiment: NCI In Vivo Anticancer Drug Screen. Data for tumor model Colon Carcinoma 38 (subcutaneous) in B6D2F1 (BDF1) mice
Details: endpoint: median tumor weight (est.), higher = larger tumour
Outline: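 Ratio of survival or tumor size, compound-treated animals relative to vehicle controls, in tumor-bearing mice.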

[1] = dose: 2.0 mg/kg/injection, schedule: Q07DX002 (ip), vehicle: saline
[2] = dose: 32.0 mg/kg/injection, schedule: Q07DX002 (ip), vehicle: saline
[3] = dose: 6.25 mg/kg/injection, schedule: Q07DX002 (ip), vehicle: saline with Tween-80
[4] = dose: 12.5 mg/kg/injection, schedule: Q07DX002 (ip), vehicle: saline with Tween-80
[5] = dose: 50.0 mg/kg/injection, schedule: Q07DX002 (ip), vehicle: saline with Tween-80
[6] = dose: 200.0 mg/kg/injection, schedule: Q07DX002 (ip), vehicle: saline with Tween-80
[7] = dose: 12.5 mg/kg/injection, schedule: Q07DX002 (ip), vehicle: water
[8] = dose: 400.0 mg/kg/injection, schedule: Q07DX002 (ip), vehicle: saline with Tween-80
[9] = dose: 800.0 mg/kg/injection, schedule: Q07DX002 (ip), vehicle: saline with Tween-80
[10] = dose: 100.0 mg/kg/injection, schedule: Q07DX002 (ip), vehicle: Klucel (hydroxypropylcellulose) (HPC)
[11] = dose: 200.0 mg/kg/injection, schedule: Q07DX002 (ip), vehicle: Klucel (hydroxypropylcellulose) (HPC)
[12] = dose: 400.0 mg/kg/injection, schedule: Q07DX002 (ip), vehicle: Klucel (hydroxypropylcellulose) (HPC)
[13] = dose: 25.0 mg/kg/injection, schedule: Q07DX002 (ip), vehicle: saline with Tween-80
[14] = dose: 100.0 mg/kg/injection, schedule: Q07DX002 (ip), vehicle: saline with Tween-80

Structure (SMILES): Cc1c(N)nc(C(CC(N)=O)NCC(N)C(N)=O)nc1C(=O)NC(C(=O)NC(C)C(O)C(C)C(=O)NC(C(=O)NCCc1nc(-c2nc(C(=O)NCCCNC(C)c3ccccc3)cs2)cs1)C(C)O)C(OC1OC(CO)C(O)C(O)C1OC1OC(CO)C(O)C(OC(N)=O)C1O)c1cnc[nH]1 (stereo not drawn)
- T/C (dose: 0.5 mg/kg/injection, schedule: Q07DX003 (ip), vehicle: saline): 75 % of control
- T/C (dose: 1.0 mg/kg/injection, schedule: Q07DX002 (ip), vehicle: saline): 66 % of control
- T/C (dose: 1.0 mg/kg/injection, schedule: Q07DX003 (ip), vehicle: saline): 90 % of control
- T/C [1]: 75 % of control
- T/C (dose: 2.0 mg/kg/injection, schedule: Q07DX003 (ip), vehicle: saline): 102 % of control
- T/C (dose: 4.0 mg/kg/injection, schedule: Q07DX003 (ip), vehicle: saline): 62 % of control
- T/C (dose: 8.0 mg/kg/injection, schedule: Q07DX003 (ip), vehicle: saline): 83 % of control
- T/C (dose: 16.0 mg/kg/injection, schedule: Q07DX003 (ip), vehicle: saline): 92 % of control
- T/C [2]: 29 % of control

Structure (SMILES): Cc1c2ccccc2c(C)c2c1cc(C(=O)O)c1ccccc12
- T/C (dose: 62.5 mg/kg/injection, schedule: Q07DX002 (ip), vehicle: other): 67 % of control
- T/C (dose: 125.0 mg/kg/injection, schedule: Q07DX002 (ip), vehicle: other): 101 % of control
- T/C (dose: 250.0 mg/kg/injection, schedule: Q07DX002 (ip), vehicle: other): 152 % of control
- T/C (dose: 500.0 mg/kg/injection, schedule: Q07DX002 (ip), vehicle: other): 58 % of control
- T/C (dose: 1000.0 mg/kg/injection, schedule: Q07DX002 (ip), vehicle: other): 87 % of control

Structure (SMILES): BrCC[Se]c1ccccc1
- T/C [3]: 158 % of control and 177 % of control
- T/C [4]: 100 % of control and 104 % of control
- T/C [5]: 107 % of control
- T/C [6]: 178 % of control

Structure (SMILES): N=C(N)c1ccc(/C=C/c2ccc(C(=N)N)cc2O)cc1
- T/C (dose: 6.25 mg/kg/injection, schedule: Q07DX002 (ip), vehicle: water): 86 % of control
- T/C [7]: 95 % of control
- T/C (dose: 25.0 mg/kg/injection, schedule: Q07DX002 (ip), vehicle: water): 112 % of control
- T/C (dose: 100.0 mg/kg/injection, schedule: Q07DX002 (ip), vehicle: water): 108 % of control

Structure (SMILES): NC(CSC(c1ccccc1)(c1ccccc1)c1ccccc1)C(=O)O (stereo not drawn)
- T/C (dose: 8.0 mg/kg/injection, schedule: Q07DX003 (ip), vehicle: Klucel (hydroxypropylcellulose) (HPC)): 83 % of control
- T/C (dose: 8.0 mg/kg/injection, schedule: Q07DX003 (ip), vehicle: saline with Tween-80): 78 % of control
- T/C (dose: 16.0 mg/kg/injection, schedule: Q07DX003 (ip), vehicle: Klucel (hydroxypropylcellulose) (HPC)): 53 % of control
- T/C (dose: 16.0 mg/kg/injection, schedule: Q07DX003 (ip), vehicle: saline with Tween-80): 61 % of control
- T/C (dose: 32.0 mg/kg/injection, schedule: Q07DX003 (ip), vehicle: Klucel (hydroxypropylcellulose) (HPC)): 64 % of control
- T/C (dose: 32.0 mg/kg/injection, schedule: Q07DX003 (ip), vehicle: saline with Tween-80): 57 % of control
- T/C (dose: 64.0 mg/kg/injection, schedule: Q07DX003 (ip), vehicle: Klucel (hydroxypropylcellulose) (HPC)): 46 % of control
- T/C (dose: 64.0 mg/kg/injection, schedule: Q07DX003 (ip), vehicle: saline with Tween-80): 75 % of control
- T/C (dose: 128.0 mg/kg/injection, schedule: Q07DX003 (ip), vehicle: Klucel (hydroxypropylcellulose) (HPC)): 34 % of control
- T/C (dose: 128.0 mg/kg/injection, schedule: Q07DX003 (ip), vehicle: saline with Tween-80): 9 % of control
- T/C (dose: 256.0 mg/kg/injection, schedule: Q07DX003 (ip), vehicle: Klucel (hydroxypropylcellulose) (HPC)): 17 % of control

Structure (SMILES): COc1cccc2c1C(=O)c1c(O)c3c(c(O)c1C2=O)C[C@H](O)C[C@@H]3OC1CC(N)C(O)C(C)O1 (stereo partly drawn)
- T/C (dose: 3.38 mg/kg/injection, schedule: Q07DX002 (ip), vehicle: water): 97 % of control
- T/C (dose: 13.5 mg/kg/injection, schedule: Q07DX002 (ip), vehicle: water): 108 % of control
- T/C (dose: 15.0 mg/kg/injection, schedule: Q07DX002 (ip), vehicle: saline): 87 % of control
- T/C (dose: 24.0 mg/kg/injection, schedule: Q07DX002 (ip), vehicle: saline): 101 % of control
- T/C (dose: 27.0 mg/kg/injection, schedule: Q07DX002 (ip), vehicle: water): 55 % of control
- T/C (dose: 38.0 mg/kg/injection, schedule: Q07DX002 (ip), vehicle: saline): 61 % of control

Structure (SMILES): CSCS(=O)C[C@H](CO)NC(=O)/C=C/c1c(C)[nH]c(=O)[nH]c1=O (stereo partly drawn)
- T/C (dose: 0.25 mg/kg/injection, schedule: Q07DX002 (ip), vehicle: saline): 110 % of control and 86 % of control
- T/C [1]: 105 % of control
- T/C (dose: 4.0 mg/kg/injection, schedule: Q07DX002 (ip), vehicle: saline): 62 % of control and 74 % of control

Structure (SMILES): CC(=O)NC(C=O)OCC=O (stereo not drawn)
- T/C [7]: 92 % of control
- T/C (dose: 400.0 mg/kg/injection, schedule: Q07DX002 (ip), vehicle: water): 152 % of control

Structure (SMILES): CC[N+](CC)(CC)CC
- T/C (dose: 1.56 mg/kg/injection, schedule: Q07DX002 (ip), vehicle: saline with Tween-80): 96 % of control
- T/C (dose: 3.12 mg/kg/injection, schedule: Q07DX002 (ip), vehicle: saline with Tween-80): 119 % of control
- T/C [3]: 86 % of control
- T/C [4]: 59 % of control

Structure (SMILES): COC(=O)C(CSC(c1ccccc1)(c1ccccc1)c1ccccc1)NC(=O)C(CC(N)=O)NC(=O)OCc1ccccc1 (stereo not drawn) (Cbz-Asn-Cys(Trt)-OMe; configuration not given here)
- T/C (dose: 25.0 mg/kg/injection, schedule: Q07DX002 (ip), vehicle: distilled water + Tween-80): 95 % of control
- T/C (dose: 50.0 mg/kg/injection, schedule: Q07DX002 (ip), vehicle: distilled water + Tween-80): 60 % of control
- T/C (dose: 100.0 mg/kg/injection, schedule: Q07DX002 (ip), vehicle: distilled water + Tween-80): 95 % of control
- T/C (dose: 200.0 mg/kg/injection, schedule: Q07DX002 (ip), vehicle: distilled water + Tween-80): 84 % of control and 88 % of control
- T/C (dose: 400.0 mg/kg/injection, schedule: Q07DX002 (ip), vehicle: distilled water + Tween-80): 77 % of control
- T/C (dose: 800.0 mg/kg/injection, schedule: Q07DX002 (ip), vehicle: distilled water + Tween-80): 56 % of control

Structure (SMILES): Nc1ncn(C2OC(CO)C(O)C2O)c(=O)n1 (stereo not drawn)
- T/C (dose: 12.5 mg/kg/injection, schedule: Q07DX002 (ip), vehicle: saline): 69 % of control
- T/C [2]: 19 % of control and 31 % of control
- T/C (dose: 50.0 mg/kg/injection, schedule: Q07DX002 (ip), vehicle: saline): 80 % of control and 85 % of control and 97 % of control
- T/C [6]: 88 % of control
- T/C [8]: 61 % of control
- T/C (dose: 400.0 mg/kg/injection, schedule: Q07DX002 (ip), vehicle: saline): 62 % of control and 79 % of control and 82 % of control
- T/C [9]: 95 % of control
- T/C (dose: 800.0 mg/kg/injection, schedule: Q07DX002 (ip), vehicle: saline): 27 % of control
- T/C (dose: 1200.0 mg/kg/injection, schedule: Q07DX002 (ip), vehicle: saline with Tween-80): 55 % of control

Structure (SMILES): C=C1C(=O)OC2/C=C(\CO)C(OC(C)=O)CC(O)/C(C)=C/C(OC(=O)C(C)CC)C12 (stereo not drawn)
- T/C [10]: 165 % of control
- T/C [11]: 95 % of control
- T/C [12]: 178 % of control

Structure (SMILES): C(C#CCN1CCOCC1)#CCN1CCOCC1
- T/C (dose: 25.0 mg/kg/injection, schedule: Q07DX002 (ip), vehicle: Klucel (hydroxypropylcellulose) (HPC)): 80 % of control
- T/C [13]: 166 % of control
- T/C (dose: 50.0 mg/kg/injection, schedule: Q07DX002 (ip), vehicle: Klucel (hydroxypropylcellulose) (HPC)): 60 % of control
- T/C [5]: 213 % of control
- T/C [10]: 65 % of control
- T/C [14]: 177 % of control
- T/C [11]: 49 % of control
- T/C [6]: 296 % of control
- T/C [12]: 94 % of control
- T/C [8]: 285 % of control
- T/C (dose: 800.0 mg/kg/injection, schedule: Q07DX002 (ip), vehicle: Klucel (hydroxypropylcellulose) (HPC)): 60 % of control
- T/C [9]: 262 % of control

Structure (SMILES): BrC1c2cccc3cccc(c23)C1Br (stereo not drawn)
- T/C [4]: 103 % of control
- T/C [13]: 117 % of control and 120 % of control
- T/C [14]: 97 % of control and 107 % of control
- T/C [6]: 108 % of control and 111 % of control
- T/C [8]: 85 % of control
